Experimental data as given in the supplement of paper PMC10307832.

Legend:
Test in all cases: relative viability (nuclei count vs DMSO), 5 days (fraction); higher = more cells survive
[1] = compound: C[C@]1(c2nc3c(C(N)=O)cccc3[nH]2)CCCN1 [Veliparib] + Cc1cc(Nc2cc(N3CCN(C)CC3)nc(Sc3ccc(NC(=O)C4CC4)cc3)n2)n[nH]1 [Tozasertib] (partner 0.1 µM)
How it was run: (§1)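 The day after seeding in 1536-well plates, lung cancer cell lines were treated by pin tool with a single drug, or with a fixed anchor-drug dose together with five library-drug doses (not always all listed) in √10 steps. After 5 days, a combined fix-and-stain solution (final 0.05% Triton X-100, 1% formaldehyde, 1 ug/ml Hoechst) was added. Nuclei counted on 4× images gave relative viability as treated counts over vehicle counts, reported as the median of duplicate plates.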

[2] = compound: C[C@]1(c2nc3c(C(N)=O)cccc3[nH]2)CCCN1 [Veliparib] + O=C(c1cc(Cc2n[nH]c(=O)c3ccccc23)ccc1F)N1CCN(C(=O)C2CC2)CC1 [Olaparib] (partner 8 µM)
How it was run: as §1

[3] = compound: C[C@]1(c2nc3c(C(N)=O)cccc3[nH]2)CCCN1 [Veliparib] + CCNC(=O)c1noc(-c2cc(C(C)C)c(O)cc2O)c1-c1ccc(CN2CCOCC2)cc1 [Luminespib] (partner 0.01 µM)
How it was run: as §1

[4] = compound: COC1=CC=C(C=C1)CN2C=CC3=C2C=C(C=C3)C(=O)NO + O=C(CCCCCCC(=O)Nc1ccccc1)NO [Vorinostat] (partner 1 µM)
How it was run: as §1

Cell Line | relative viability ([1]; first compound 0.02 µM) | relative viability ([1]; first compound 0.06325 µM) | relative viability ([1]; first compound 0.2 µM) | relative viability ([1]; first compound 0.6325 µM) | relative viability ([1]; first compound 2 µM) | relative viability ([2]; first compound 0.02 µM) | relative viability ([2]; first compound 0.06325 µM) | relative viability ([2]; first compound 0.2 µM) | relative viability ([2]; first compound 0.6325 µM) | relative viability ([2]; first compound 2 µM) | relative viability ([3]; first compound 0.02 µM) | relative viability ([3]; first compound 0.06325 µM) | relative viability ([3]; first compound 0.2 µM) | relative viability ([3]; first compound 0.6325 µM) | relative viability ([3]; first compound 2 µM) | relative viability ([4]; first compound 0.08 µM) | relative viability ([4]; first compound 0.253 µM) | relative viability ([4]; first compound 0.8 µM) | relative viability ([4]; first compound 2.53 µM) | relative viability ([4]; first compound 8 µM)
LCLC-103H | 0.528 | 0.339 | 0.463 | 0.443 | 0.485 | 0.753 | 0.74 | 0.826 | 0.75 | 0.745 | 0.987 | 0.888 | 1.04 | 0.907 | 0.992 | 0.647 | 0.832 | 0.868 | 0.748 | 0.613
NCI-H1650 | – | 0.441 | 0.486 | 0.448 | 0.526 | 0.918 | 0.679 | 0.729 | 0.707 | 0.757 | – | 0.216 | 0.194 | 0.199 | 0.217 | 0.354 | 0.557 | 0.595 | 0.684 | 0.532
PC-3 [JPC-3] | 0.87 | 0.902 | 0.822 | 0.864 | 0.845 | 1.17 | – | 1.22 | 1.06 | 1.07 | 0.65 | 0.711 | 0.753 | 0.662 | 0.66 | 0.786 | – | 0.668 | 0.756 | 0.587
LOU-NH91 | 0.647 | 0.684 | 0.729 | 0.584 | 0.746 | 0.882 | 0.901 | 0.978 | 0.876 | 0.95 | 0.339 | 0.401 | 0.352 | 0.285 | 0.342 | – | 0.953 | 0.906 | 0.963 | 0.884
NCI-H838 | 0.344 | 0.28 | 0.285 | 0.256 | 0.25 | 0.852 | 0.729 | 0.802 | 0.702 | 0.764 | 0.287 | 0.32 | 0.302 | 0.295 | 0.25 | 0.285 | 0.614 | 0.75 | 0.771 | 0.737
NCI-H23 | 0.38 | 0.429 | 0.434 | 0.381 | 0.426 | 0.34 | 0.338 | 0.345 | 0.355 | 0.314 | 0.168 | – | 0.251 | 0.24 | 0.228 | 0.338 | 0.649 | 0.637 | 0.584 | 0.461
NCI-H2023 | 0.518 | 0.376 | 0.342 | 0.431 | 0.367 | 0.486 | 0.477 | 0.439 | 0.446 | 0.439 | 0.746 | 0.738 | 0.696 | 0.73 | 0.73 | 0.256 | 0.631 | 0.619 | 0.647 | 0.654
NCI-H1993 | 0.612 | 0.583 | 0.671 | 0.627 | 0.598 | – | 1.05 | 1.2 | 1.03 | 1.13 | 0.713 | 0.675 | 0.968 | 0.64 | 0.895 | 0.527 | 1.21 | 0.901 | 0.842 | 0.73
UMC-11 | 0.234 | 0.223 | 0.231 | 0.213 | 0.212 | 0.627 | 0.336 | 0.485 | 0.359 | 0.438 | 1.11 | 0.994 | 1.02 | 0.958 | 0.975 | 0.149 | 0.467 | 0.428 | 0.375 | 0.506
